Here are results for one molecule from patent publication US20250268900A1, “COMBINATION THERAPY USING A SUBSTITUTED PYRIMIDIN-4(3H)-ONE AND NIVOLUMAB AS WELL AS ITS USE IN THE TREATMENT OF CANCER” (BRISTOL-MYERS SQUIBB COMPANY, priority 2022, published 2025).

The subject of one experiment is CD8+ T cells. As to the kind of experiment: CD8+ activation in PBMCs: CD107a+ cells as a percentage of total CD8+ T cells after CEFT peptide pool stimulation, flow cytometry. It counts as cell-based. Particulars: PBMCs restimulated with CEFT peptide pool 24 hours, titration of Compound (10b) alone or with αPD-L1. As to the method: (§1) A study was performed to evaluate the effect of the SHP2 inhibitor Compound (10b) alone and in combination with αPD-L1 on T cell cytokine production and killing potential in response to antigenic stimulation. PBMCs from four healthy donors were stimulated with a CEFT peptide pool and treated with vehicle, isotype control, αPD-L1, a titration of Compound (10b), or a titration of Compound (10b) with the addition of either isotype control or αPD-L1. After the initial CEFT stimulation, the cultures were rested and cytokines were added to expand the number of responding CD8+ T cells. Cells were then restimulated with the CEFT peptide pool for 24 hours, and the frequency of CD107a+ cells as a percentage of total CD8+ T cells was assessed by flow cytometry. In addition, at 5 days post stimulation, the supernatents were harvested and the concentration of IFNγ was measured by TR-FRET. FIG. 1A-FIG. 1B show results from this study.
(A flow cytometer gives signals particle by particle.)

The subject of another experiment is IFNγ. As to the kind of experiment: IFNγ concentration in PBMC supernatants 5 days post CEFT stimulation, TR-FRET. The experiment is classed as cell-based. To be noted: 5 days after CEFT stimulation; data not shown. As to the method: as §1
For orientation: In TR-FRET formats the signal depends on donor and acceptor labels being close together.

A further experiment has as its system CT-26 KRAS D12C KI tumor. To be noted: CT-26 KRAS D12C KI bearing Balb/c mice, n = 10.

Description for CT-26 KRAS D12C KI tumor: Animal Receipt and Housing. For the CT-26 CRISPR knock-in KRAS D12C study, protocols and procedures involving the care and use of animals were reviewed and approved by the Charles River Accelerator and Development Lab (CRADL) Institutional Animal Care and Use Committee (IACUC) prior to execution. The animal care and use program has been fully accredited by the Association for Assessment and Accreditation of Laboratory Animal Care International (AAALAC). Balb/c female mice (Envigo; Inotiv Inc.) were ordered, aged six to eight weeks at receipt, and identified by ear notch. Animals were acclimated for a period of eleven days prior to tumor inoculation. For the duration of the acclimation period and throughout the study, mice were group-housed up to five animals per cage in disposable polycarbonate IVC cages (Innovive; San Diego, CA) which consisted of a layer of Alpha-Dri bedding (Sheppard Specialty Papers, Inc., Kalamazoo, MI), a certified enrichment block and diamond-twist, and a certified polycarbonate housing device. Mice were presented with rodent diet pellet and irradiated reverse-osmosis Aquavive® drinking water (Innovive; San Diego, CA), ad libitum. The vivarium temperature was maintained between 20° C. through 26° C. and an environmental humidity between 30% through 70%. The interior room lighting was cycled twelve hours on and twelve hours off.
Tumor Cell Line Culture and Inoculation. […] Cells were screened and confirmed negative for mouse pathogens (IDEXX) and maintained in-vitro at 37° C., 5% CO2 atmosphere in 10% (v/v) fetal bovine serum (FBS, Invitrogen) and 90% (v/v) Roswell Park Memorial Institute (RPMI) 1640 Medium (Gibco) on T150 flasks. For implantation, cells were harvested with 0.25% Trypsin-EDTA (Gibco), washed in DPBS (Gibco), counted and viability determined with trypan blue exclusion using Vi-Cell XR (Beckman Coulter), then brought up in a 1:1 ratio of DPBS:Matrigel to a final concentration of 3×10^6 cells/mL. […]

`Cc1c(N2CCC3(CC2)CO[C@@H](C)[C@H]3N)nc(C)n(-c2cccc(Cl)c2Cl)c1=O` (atropisomer, axis not shown; (Ra)) [Compound (10b), 6-((3S,4S)-4-amino-3-methyl-2-oxa-8-azaspiro[4.5]decan-8-yl)-3-(Ra)-(2,3-dichlorophenyl)-2,5-dimethyl-4(3H)-pyrimidinone]: the “CD107a+CD8+ T cells (frequency of CD107a+ cells as a percentage of total CD8+ T cells)” value with CD8+ T cells (donor 1) is “clear Compound (10b) dose-dependent effect”; with CD8+ T cells (donor 2) it was “dose dependent decrease”; in the experiment on CD8+ T cells (donor 3), “some Compound (10b) effect”; in the experiment with CD8+ T cells (donor 4), “no Compound (10b) effect”. Further, the IFNγ levels entry in the experiment with IFNγ was “inconsistent across donors”. Also, in the experiment on CT-26 KRAS D12C KI tumor (Formula (10b) 100 mg/kg PO QD×35, ANTIBODY A 10 mg/kg IP Q4D×4, endpoint tumor volume >1,500 mm^3), the “Median Progression-Free to Tumor Burden Endpoint” value came out at 19 Study Day. Besides, the “Hazard Ratio Treatment/ANTIBODY A (Group 2)” value with CT-26 KRAS D12C KI tumor (Mantel-Haenszel hazard ratio vs ANTIBODY A alone, progression-free to tumor burden endpoint (tumor volume >1,500 mm^3)) was found to be 1.230. For the same molecule, the “Hazard Ratio Treatment/Control (Group 1)” value with CT-26 KRAS D12C KI tumor (Mantel-Haenszel hazard ratio vs Vehicle Control + MOPC-21 Isotype, progression-free to tumor burden endpoint (tumor volume >1,500 mm^3)) stood at 0.261.
